Assay results as given in PubChem BioAssay AID624407 (The Scripps Research Institute Molecular Screening Center, 2012).
pIC50: −log10 of the molar value. Active and inactive are the calls of the source. No rule for the calls is given here.

system: parental CHO-K1 cells, HTRF counterscreen; assay: antagonist activity in parental CHO-K1 cells, late-stage follow-up, counter-screen for OX1R antagonist project, cell-based, HTRF, dose response (AID 624407)

Row | Compound | IC50 | pIC50
1 | CSc1cccc(NC(=O)C2CCCN2S(=O)(=O)c2ccc(Br)s2)c1 (stereo unspecified) | > 59.6 µM (inactive) | –
2 | CCOc1ccccc1C(=O)Nc1ccc2nc3n(c(=O)c2c1)CCCCC3 | > 59.6 µM (inactive) | –
3 | Cc1ccccc1NC(=O)C1CCCN1S(=O)(=O)c1ccccc1C(F)(F)F (stereo unspecified) | > 59.6 µM (inactive) | –
4 | CCN(CC)c1ccc(NC(=O)Cn2c(C(C)NC(=O)c3ccccc3)nc3ccccc32)cc1 (stereo unspecified) | > 59.6 µM (inactive) | –
5 | COc1ccc(OC)c(S(=O)(=O)NCC(c2ccco2)N2CCc3ccccc32)c1 (stereo unspecified) | > 59.6 µM (inactive) | –
6 | Cc1cccc(NC(=O)[C@@H]2CCCN2S(=O)(=O)c2ccc(Cl)cc2)c1 | > 59.6 µM (inactive) | –
7 | Cc1cccc(C=NNC(=O)c2cc3c(s2)-c2ccccc2CC3)c1 | > 59.6 µM (inactive) | –
8 | O=c1cc(CN2CC(O)Cc3ccc4ccccc4c32)nc2sccn12 (stereo unspecified) | > 59.6 µM (inactive) | –
9 | CCSC1=C(C#N)C(c2ccccc2Cl)C(C(=O)c2cccs2)C(O)(C(F)(F)F)N1 (stereo unspecified) | > 59.6 µM (inactive) | –
10 | CCc1cc2c(SCC(=O)N(CC)c3c(N)n(Cc4ccccc4)c(=O)[nH]c3=O)ncnc2s1 | > 59.6 µM (inactive) | –
11 | CC(=C/c1ccccc1)/C=C1/SC(N2CCOCC2)=NC1=O | 12.4 µM (inactive) | –
12 | Fc1cccc(Nc2nc3ccccc3n3cnnc23)c1 | > 59.6 µM (inactive) | –
13 | O=C(CSc1ccc(-c2ccccc2)nn1)c1cccs1 | > 59.6 µM (inactive) | –
14 | Cc1c(NS(=O)(=O)c2cccc(C(=O)OCC(=O)N(C)C3CCCCC3)c2)c(=O)n(-c2ccccc2)n1C | > 59.6 µM (inactive) | –
15 | Cc1noc(C)c1COc1ccc(C(=O)OCC(=O)N2CC(=O)Nc3ccccc32)cc1 | > 59.6 µM (inactive) | –
16 | CCn1c(SCC(=O)Nc2ccc3c(c2)c2ccccc2n3CC)nnc1-c1cnccn1 | > 59.6 µM (inactive) | –
17 | CCOC(=O)N1CCN(C(=O)CSc2ccc(-c3ccccc3)nn2)CC1 | > 59.6 µM (inactive) | –
18 | COc1cc(OC)c(-c2nc3ccccc3s2)cc1OC | > 59.6 µM (inactive) | –
19 | COc1cccc(/C=C2/Oc3ccccc3N(CC(=O)NCC3CCCO3)C2=O)c1 (stereo unspecified) | > 59.6 µM (inactive) | –
20 | CCc1cc(C(=O)OCC(=O)N2CCC(c3ccccc3)=N2)sc1C | > 59.6 µM (inactive) | –
21 | COCCCNC(=O)CCC(=O)NNc1nc2ccccc2c2nc(-c3ccccc3)nn12 | > 59.6 µM (inactive) | –
22 | Cc1cc(Cl)ccc1OCCCC(=O)NCCN1C(=O)S/C(=C\c2cccnc2)C1=O | – | 5.06
23 | CN(N=Cc1cc([N+](=O)[O-])ccc1O)c1ccccc1 | > 59.6 µM (inactive) | –
24 | O=C(CN1C(=O)/C(=C\c2cccc(Br)c2)Oc2ccccc21)NCC1CCCO1 (stereo unspecified) | > 59.6 µM (inactive) | –
25 | Cc1ccc(-c2csc3nnc(SCC(=O)Nc4nsc(-c5ccccc5)n4)n23)cc1 | > 59.6 µM (inactive) | –
26 | CSc1cccc(N2CC(C(=O)NCCN3C(=O)S/C(=C\c4cccnc4)C3=O)CC2=O)c1 (stereo unspecified) | – | 5.47
